We go through 13 compounds from the OPERA property sets (Mansouri et al. 2018).

Compound `CCC1(C(C)(C)C)C(=O)NC(=O)NC1=O` had a logP of 1.38.
Regarding `CC(C)C1C(=O)NC(=O)NC1=O`, the log partition coefficient (logP) is -0.02.
`CCC(C)C1(CC)C(=O)NC(=O)NC1=O` (stereo not drawn) registered a log partition coefficient (logP) of 1.65.
On to `CC(C)(C)C1(C)C(=O)NC(=O)NC1=O`, for which the logP amounted to 0.8.
The compound `C=CCC1(C(C)(C)C)C(=O)NC(=O)NC1=O` yielded a logP of 1.64.
`CCC1(CC)C(=O)NC(=S)NC1=O` registered a logP of 1.5.
In turn, `CCCC1(CCC)C(=O)NC(=S)NC1=O` yielded a lipophilicity (logP) of 2.66.
`CC(C)(C)C1C(=O)NC(=O)NC1=O` had a logP of 0.28.
`CC(C)(C)C1(Cl)C(=O)NC(=O)NC1=O` had a log partition coefficient (logP) of 0.82.
Consider `CC(C)C1(C(C)C)C(=O)NC(=O)NC1=O`, for which the log partition coefficient (logP) turned out to be 1.56.
`CC(C)C1(C)C(=O)NC(=O)NC1=O` registered a lipophilicity (logP) of 0.54.
As to `CCCC1(CCC)C(=O)NC(=O)NC1=O`, the logP is 1.75.
For the compound `CCCCC1(CCCC)C(=O)NC(=O)NC1=O`, the logP amounted to 2.7.

What is called logP is a log measure of how a compound divides between an organic and an aqueous phase.
